Data reported in patent publication US5876715A, “Antibodies that bind novel carbohydrate ligands (myelorollins) that cause E-selectin dependent cell rolling, and uses thereof” (The Biomembrane Institute, priority 1996, dated 1999).
“Also recorded” adds a separate entry of the source.

Test system: E-selectin-expressing CHO cells
Test: Rolling and adhesion of E-selectin-expressing CHO cells on ganglioside-coated beads under dynamic flow (parallel plate laminar flow chamber)
Type: cell-based, Chinese hamster
Conditions: for rolling and adhesion of E-selectin-expressing CHO cells / adhesion of E-selectin-expressing CHO cells / rolling of E-selectin-expressing CHO cells: dynamic flow conditions, shear stress 0.6-12 dynes/cm^2; for rolling and adhesion of E-selectin-expressing CHO cells at 100 ng ganglioside: 100 ng of single fraction or mixture of 50 ng each, 1 μm beads, 4.8 and 2.4 dynes/cm^2 (FIG. 3A); for rolling and adhesion of E-selectin-expressing CHO cells at low ganglioside quantity: 0.05-0.1 ng ganglioside per spot (mixture 0.05 ng each), 1 μm beads (FIGS. 3B, 4A, 4B)
Description: FIGS. 2A-2E show rolling and adhesion of E-selectin-expressing CHO cells to polystyrene beads coated with various gangliosides under dynamic flow conditions. Various poly-LacNac gangliosides were quantitatively adsorbed on beads affixed to glass microscope slides as described in the Materials & Methods section in the EXAMPLE. These polystyrene beads affixed on galss plates are resistant to dynamic flow. GSL coated on beads are therefore very stable in dynamic flow. Slides were blocked by placing 2% BSA in PBS at room temp for 1 hr, and assembled in a parallel-plate laminar-flow chamber. E-selectin-expressing CHO cells were freshly harvested and suspended in RPMI medium (1×10^5 cells/mL). The cell suspensions were placed in an infusion pump connected to the flow chamber, and infused into the assembly at various laminar flow rates. Cell movements were observed under phase-contrast microscope and recorded by videocassette recorder. Numbers of rolling cells (.smallcircle.) and adherent (nonrolling) cells (.circle-solid.), in at least 10 microscope fields, at four different shear stresses (dynes/cm^2; see abscissa), were plotted.
Polystyrene latex beads ([…] or 1 μm) used as carriers of GSLs as above were suspended in ethanol. 1 μL aliquots of suspension were placed on precleaned and specially treated microscope slides (Labcraft Superfrost® Plus, Curtin Matheson Scientific, Houston, Tex.). Beads were distributed homogeneously on the glass surface within a circular spot with diameter about 1 cm. Slides were heated at 150° C. for 50 sec, which caused the beads to adhere strongly to the surface such that they could not be washed off by water stream at various velocities. Gangliosides dissolved in IHW at the same molar concentration were applied to latex beads affixed on the slides; namely, 1 μL aliquots containing 50-100 or 0.05-0.1 ng ganglioside were placed on the center of a circular spot. The ganglioside thus became affixed to the bead surface.
Slides prepared as above, as they are or after treatment consisted of incubating said slides for at least an hour at room temperature with 3% BSA prewarmed at 37° C. and washing with PBS containing CA^2+ /Mg^2+ (i.e., PBS(+)) were placed in a parallel plate laminar flow chamber connected to an infusion pump (model 935, Harvard Apparatus, Cambridge, Mass.). The assembly, originally described by Lawrence et al. (Lawrence et al., 1990, Blood 75:227-237; Lawrence and Springer, 1991, Cell 65:859-873), simulates the flow shear stress present in physiological microvascular environments. A laminar flow with defined rate and wall shear stress is achieved by manipulation of the infusion pump, which is connected to the inlet of the flow chamber. A suspension of E- or P-selectin-expressing CHO cells (1×10^5 /mL in FIGS. 2A-2E, 2×10^5/ cells mL in FIG. 3A, 5×10^5 /cells mL in FIGS. 3B, 4A and 4B), freshly harvested from culture with EDTA, washed, and resuspended in 1% FCS-RPMI medium, was infused into the assembly at various laminar flow rates. Cell movements were observed under inverted phase-contrast microscope (Diaphot-TMD, Nikon) and recorded by time-lapse videocassette recorder. Cell rolling and adhesion were observed, and numbers of rolling and adherent cells during a 2 min period at shear stresses, from 0.6-12.0 dynes/cm^2 were counted from at least 10 fields on videotape. Wall shear stress (T) was calculated by the equation of Lawrence et al. (Lawrence et al., 1990 Blood 75:227-237; Lawrence et al., 1987, Blood 70: 1284-1290): T=3 μQ/2ba^2, where μ=coefficient of viscosity (1.0 cP), Q=volumetric flow rate (cm^3 /sec), a=half channel height (in this case, 5.7×10^-3 cm), and b=channel width (1.3 cm).
10, 13-1, and 14 (containing Str. 4-5, Str. 7-8, and Str. 9-12 in Table 1, respectively). […] 10 and 14, which have myelorollin structure and lack SLe^x epitope (FIG. 4). Polystyrene beads were affixed to glass microscope slides. Various gangliosides were coated as described in Materials & Methods. […]

| Substance | rolling and adhesion of E-selectin-expressing CHO cells | rolling and adhesion of E-selectin-expressing CHO cells at 100 ng ganglioside (dynamic flow) | rolling and adhesion of E-selectin-expressing CHO cells at low ganglioside quantity (dynamic flow) | adhesion of E-selectin-expressing CHO cells | rolling of E-selectin-expressing CHO cells | other results |
| --- | --- | --- | --- | --- | --- | --- |
| VIII^3 NeuAcIII^3 FucnLc8 Cer [Fr. 10-2] | strong rolling and adhesion | comparable rolling and Vadhesion; also recorded: comparable to each other; also recorded: comparable adhesion | still produced marked rolling and adhesion |  |  | rolling and adhesion of E-selectin-expressing CHO cells at 100 ng ganglioside (dynamic flow, listed as 10-2): comparable; rolling and adhesion of E-selectin-expressing CHO cells at low ganglioside quantity (dynamic flow, listed as 10-2): still produced marked rolling/adhesion |
| VIII^3 NeuAcV^3 FucnLc8 Cer [Fr. 10-1] | strong rolling and adhesion | comparable rolling and Vadhesion; also recorded: comparable to each other; also recorded: comparable adhesion | did not |  |  | rolling and adhesion of E-selectin-expressing CHO cells at 100 ng ganglioside (dynamic flow, listed as 10-1): comparable |
| VI^3 NeuAcV^3 FucIII^3 FucnLc6 Cer [SLe^x -Le^x, reference compound] | weaker than myelorollin structures; also recorded: weaker than myeloglycan or myelorollin structures |  | no rolling or adhesion; also recorded: no rolling and adhesion observed; also recorded: essentially no cell rolling and adhesion; also recorded: did not cause any E-selectin-dependent cell rolling or adhesion | Low level of adhesion without rolling; also recorded: adherent, but not rolling; also recorded: significantly lower than for Fr. 13-1 or 14; also recorded: only weak adhesion compared to Fr. 10-1, 10-2, 13-1 and 14; also recorded: relatively weak adhesion compared to Fr. 10-1, 10-2, 13-1, and 14 | not observed (or barely observed); also recorded: No rolling was observed | adhesion of E-selectin-expressing CHO cells (listed as Str. 3): did produce cell adhesion, but to a lesser extent than the myelorollin fractions; also recorded: lower level of adhesion; rolling of E-selectin-expressing CHO cells (listed as Str. 3): no cell rolling; rolling of E-selectin-expressing CHO cells (listed as sialyl Le^x -Le^x): No rolling was observed; rolling number (dynamic flow, 4 μm beads, every field at all shear stresses (FIG. 2A)): 0; number of cells adhered without rolling (dynamic flow, shear stresses 12 to 1.2 dynes/cm^2 (FIG. 6A)): less than 5 /field |
| VI^3 NeuAcnLc6 Cer [Fr. 7] |  |  |  | no cell adhesion |  |  |
| X^3 NeuAcVII^3 FucV^3 FucnLc10 Cer [Fr. 13-1] |  |  |  |  | more frequent at 4.8 and 2.4 than at 1.2 dynes/cm^2; also recorded: caused strong rolling | shear stress at which plain rolling and rolling followed by adhesion was maximal / most clearly observed (dynamic flow, 12, 4.8, 2.4, 1.2 and 0.6 dynes/cm^2 (FIGS. 6A-6D)): 2.4 dynes/cm^2; shear stress at which rolling (rolling/adhesion) was highest (dynamic flow, ganglioside on 1 μm beads (FIGS. 2D, 2E)): 4.8 dynes/cm^2 |
| X^3 NeuAcVII^3 FucnLc10 Cer [Fr. 12-2] | lower than for Frs. 13-1 and 14 (FIGS. 2C and 2E), but comparable to SLe^x -Le^x; also recorded: lower than for Fr. 13-1 and 14 (FIG. 2C and FIG. 2E), but comparable to SLe^x -Le^x |  |  |  |  | Number of E-selectin expressing cells adhered on myelorollin under dynamic flow, column 5 (0.6-1.2 dynes/cm^2, column head 5 (not explained)): 5 (±2); Number of E-selectin expressing cells adhered on myelorollin under dynamic flow, column 10 (0.6-1.2 dynes/cm^2, column head 10 (not explained)): 3 (±1); shear stress at which rolling was highest (dynamic flow, ganglioside on 4 μm beads (FIG. 2B)): 4.8 dynes/cm^2 |
